Measurements: US9492508B2, “Parathyroid hormone analogs and uses thereof” (The General Hospital Corporation, priority 2010, dated 2016)
Square brackets hold non-standard residues; d marks the D form. Peptide text beside a SMILES is read from it. hArg = N=C(N)NCCCC[C@H](N)C(=O)O; Aib = CC(C)(N)C(=O)O

What was measured:
rat PTHR1 (R0) = molecular target: T1, rat PTHR1 (R0) (Rattus norvegicus, UniProt P25961); experiment: Competition binding, R0 conformation of rat PTHR1; conditions: R0 conformation; mean of 4 experiments; read-out: Binding rat PTHR1 IC50 (Log M) R0 (converted)
T1 sequence (P25961 27-591): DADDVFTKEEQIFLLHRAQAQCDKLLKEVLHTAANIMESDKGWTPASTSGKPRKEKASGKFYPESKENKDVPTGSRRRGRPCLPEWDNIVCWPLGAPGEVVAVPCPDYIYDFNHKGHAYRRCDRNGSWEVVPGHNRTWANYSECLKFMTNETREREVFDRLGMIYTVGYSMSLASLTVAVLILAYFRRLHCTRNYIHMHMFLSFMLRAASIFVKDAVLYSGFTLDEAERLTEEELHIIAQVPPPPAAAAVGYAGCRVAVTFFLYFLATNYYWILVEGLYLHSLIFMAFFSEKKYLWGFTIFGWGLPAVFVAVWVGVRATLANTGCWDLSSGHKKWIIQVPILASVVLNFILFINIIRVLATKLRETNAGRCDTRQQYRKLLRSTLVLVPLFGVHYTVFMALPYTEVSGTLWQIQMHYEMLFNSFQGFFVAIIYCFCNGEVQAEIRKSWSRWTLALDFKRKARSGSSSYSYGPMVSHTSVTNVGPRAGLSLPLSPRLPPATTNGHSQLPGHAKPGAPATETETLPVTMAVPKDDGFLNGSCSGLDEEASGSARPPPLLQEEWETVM
Source text: Briefly, the R^0 form of the receptor can be favored by addition of the non-hydrolyzable nucleotide analog GTPγS. The RG form can be favored, for example, by co-transfection of cells with a negative dominant Gαs subunit. […] Data are means of four experiments, each performed in duplicate. Curves were fit to the data using Graph-Pad Prism 4.0.

MC3T3-E1 cells = experiment: cAMP RIA in intact MC3T3-E1 cells; assay type: cell-based, mouse; conditions: 30 min, room temperature, IBMX
Protocol: cAMP stimulating activity of these polypeptides was also assessed, using two different methods: a radioimmunoassay (RIA; FIG. 2) and a cAMP responsive element fused to a luciferase gene (FIG. 3). Briefly, the RIA cAMP assays were performed in intact MC3T3-E1 cells, a mouse pre-osteoblastic cell line, in 96-well plates, as described by Okazaki et al. (Proc Natl Acad Sci USA 105:16525-30, 2008). […] The cAMP contents of the HCl lysates were then determined by RIA. Data are means of six experiments, each performed in duplicate. Curves were fit to the data using Graph-Pad Prism 4.0.

[1] = Repetitive daily dosing in TPTX rats (10 days); assay type: in vivo, rat; conditions: calcitriol 0.2 μg/kg oral daily 10 days
Protocol: FIGS. 20A-20D are graphs showing effects of once-daily SP-PTH on serum and urine Ca in TPTX rats. TPTX and sham-control rats were treated once daily, for 10 days, via sc. injection with either vehicle (Sham and TPTX) or SP-PTH (SEQ ID NO:11) (1, 2. 4, or 8 nmol/kg), or with 1,25(OH)2D (0.075 or 0.2 μg/kg. orn). After the last injection on day 10, the rats were placed in metabolic cages, and jugular vein blood was obtained at 8 (FIG. 20A) and 24 hrs (FIG. 20B); urine was collected for the intervals 0-8 (FIG. 20C) and 8-24 hrs (FIG. 20D); means±s.e.m: n=5; ′˜, P vs vehicle <005.
In therapeutic use in humans, one would administer doses sufficient to only normalize blood Ca. A key experiment is to determine if it is indeed feasible to normalize sCa following a repetitive dosing regimen. We thus performed the experiment of FIGS. 20A-2D, in which TPTX rats were treated daily for 10 days with SP-PTH at doses of 1, 2, 4 and 8 nmol/kg (s.c). For comparison, 1,25(OH)2-vitamin-D (calcitriol) at doses of 0.075 and 0.2 mcg/kg (oral) were used for the same time periods.

Row | Structure (SMILES) | IC50 (rat PTHR1 (R0)) [nM] | EC50 (MC3T3-E1 cells) [nM] | cAMP MC3T3-E1 cells Emax (pmole/well) (MC3T3-E1 cells) | cAMP MC3T3-E1 cells EC50 (Log M) (MC3T3-E1 cells; 6 experiments) | sCa achieved [1] [mg/dL] | urine calcium [1]
1 | CC[C@H](C)[C@H](NC(=O)[C@H](CCC(=O)O)NC(=O)C(C)(C)NC(=O)[C@@H](NC(=O)[C@H](C)N)C(C)C)C(=O)N[C@@H](CCC(N)=O)C(=O)N[C@@H](CC(C)C)C(=O)N[C@@H](CCSC)C(=O)N[C@@H](Cc1c[nH]cn1)C(=O)N[C@@H](CCC(N)=O)C(=O)N[C@@H](CCCCNC(=N)N)C(=O)N[C@@H](C)C(=O)N[C@@H](CCCCN)C(=O)N[C@@H](Cc1c[nH]c2ccccc12)C(=O)N[C@@H](CC(C)C)C(=O)N[C@@H](CC(N)=O)C(=O)N[C@@H](CO)C(=O)N[C@@H](CCSC)C(=O)N[C@@H](CCCNC(=N)N)C(=O)N[C@@H](CCCNC(=N)N)C(=O)N[C@H](C(=O)N[C@@H](CCC(=O)O)C(=O)N[C@@H](Cc1c[nH]c2ccccc12)C(=O)N[C@@H](CC(C)C)C(=O)N[C@@H](CCCNC(=N)N)C(=O)N[C@@H](CCCCN)C(=O)N[C@@H](CCCCN)C(=O)N[C@@H](CC(C)C)C(=O)N[C@@H](CCC(N)=O)C(=O)N[C@@H](CC(=O)O)C(=O)N[C@H](C(=O)N[C@@H](Cc1c[nH]cn1)C(=O)N[C@@H](CC(N)=O)C(=O)N[C@@H](Cc1ccccc1)C(N)=O)C(C)C)C(C)C [M-PTH(1-34), M-PTH(1-34).NH2, reference compound] (H-AV[Aib]EIQLMHQ[hArg]AKWLNSMRRVEWLRKKLQDVHNF-NH2; N-terminus assumed) | 1.48 | 0.048 | 56.3 ± 13.4 | −10.3 ± 0.1 |  | 
2 | C=C1/C(=C\C=C2/CCC[C@]3(C)[C@@H]([C@H](C)CCCC(C)(C)O)CC[C@@H]23)C[C@@H](O)C[C@@H]1O [calcitriol, 1,25(OH)2-vitamin-D, reference compound] |  |  |  |  | 8 to 9 | elevated urine calcium
